Key:
Type in all cases: cell-based
[1] = tested on: mitochondrial transient permeability pore (TPP); assay: Opening of the mitochondrial transient permeability pore (TPP); conditions: during ischaemia and/or reperfusion events
[2] = tested on: complex I of the endothelial cell respiratory chain; assay: Production of ROS by complex I of the endothelial cell respiratory chain; conditions: endothelial cells; by inhibiting reverse electron flow
[3] = tested on: human dermal microvascular endothelial cell line HMEC-1; assay: Mitochondrial membrane potential (TMRM probe, confocal microscopy) in HMEC-1 cells under ischaemia/reperfusion
Protocol: The immortalized human dermal microvascular endothelial cell line HMEC-1 was used. […] They were analysed by confocal microscopy before the treatment, after 60 minutes of ischaemia, after 90 minutes of reperfusion and after 120 minutes of reperfusion.

For `CC1N=C(N)NC(N(C)C)=N1` (stereo not shown) [E 008], the “opening of the mitochondrial transient permeability pore (TPP)” value [1] was “reduce the opening of the mitochondrial transient permeability pore (TPP)”, the “production of ROS by complex I of the respiratory chain” value [2] was “reduce the production of ROS” and the “mitochondrial membrane potential after reperfusion” value ([3]; HMEC-1, 30 min pre-incubation, 60 min ischaemia, reperfusion 90 and 120 min, TMRM 30 nM) was “protected against the damage induced by the reperfusion”. The “loss of potential of the mitochondrial membrane” value ([3]; during ischaemia and/or reperfusion events) was “prevent the loss of potential of the mitochondrial membrane”.
